From US5616606A, “Oligopeptide antiretroviral agents” (priority 1995, dated 1997)
Several values for one entry are separate records, joined by “and”; a condition that tells them apart may be missing. Equal entries are not always repeated. Where two headings read alike, the source gives them in different places.

Tests used:
[1] = system: HIV-1
[2] = system: T4 lymphocytes (CEM cell line); experiment: NCI anti-HIV screen, toxicity control in uninfected cells; assay type: cell-based
[3] = system: poly(dA-dT); experiment: ethidium displacement assay, poly(dA-dT); settings: relative to ethidium 9.5 × 10^6 M^-1, average of repeat measurements
[4] = system: 2.2.15 cells; experiment: toxicity analysis, neutral red dye uptake in 2.2.15 cells; settings: triplicate, ± standard deviation
[5] = solubility in DMSO, MeOH, H2O; assay type: physicochemical; settings: H2O
[6] = system: HBV; experiment: inhibition of HBV DNA replication in 2.2.15 cell cultures; assay type: cell-based; settings: single well, dihydrochloride; for INT[…] DNA MONO.: 24 hours following the 9th day of treatment
[7] = HIV-1 infected CEM cells, 6 days, XTT, Tables VI-X
[8] = dose 1.34 × 10^-3 Molar, Table VII
[9] = dose 1.34 × 10^-4 Molar, Table VII
[10] = dose 1.35 × 10^-5 Molar, Table VII
[11] = dose 1.35 × 10^-6 Molar, Table VII
[12] = dose 4.26 × 10^-4 Molar, Table VII
[13] = dose 4.26 × 10^-5 Molar, Table VII
[14] = dose 4.27 × 10^-6 Molar, Table VII
[15] = dose 4.28 × 10^-7 Molar, Table VII
[16] = dose 1.79 × 10^-6 Molar, Table VI
[17] = dose 1.79 × 10^-7 Molar, Table VI
[18] = dose 1.79 × 10^-8 Molar, Table VI
[19] = dose 5.66 × 10^-6 Molar, Table VI
[20] = dose 5.67 × 10^-7 Molar, Table VI
[21] = dose 5.68 × 10^-8 Molar, Table VI
[22] = dose 5.68 × 10^-9 Molar, Table VI
[23] = dose 1.05 × 10^-8 Molar, Table VIII
[24] = dose 1.09 × 10^-7 Molar, Table VIII
[25] = dose 3.31 × 10^-6 Molar, Table VIII
[26] = dose 3.31 × 10^-7 Molar, Table VIII
[27] = dose 3.32 × 10^-8 Molar, Table VIII
[28] = dose […] 10^-6 Molar, Table VIII

Cl.Cl.Cn1cc(NC(=O)c2cc(NC(=O)/C=C\C(=O)Nc3cc(C(=O)Nc4cc(C(=O)NCCC(=N)N)n(C)c4)n(C)c3)cn2C)cc1C(=O)NCCC(=N)N [Compound 22b, N,N'-Di(1-methyl-2-carboxamido(3-(proprionamidine-4-pyrrole]-4-pyrrolyl)maleamidedihydrochloride]
EC50 [1, 7]: 4.04 µM
EC50 ([1]; Table XI): 0.35 µM

Cl.Cl.Cn1cc(NC(=O)c2cc(NC(=O)c3cccc(C(=O)Nc4cc(C(=O)Nc5cc(C(=O)NCCC(=N)N)n(C)c5)n(C)c4)c3)cn2C)cc1C(=O)NCCC(=N)N [Compound 20b, N,N'-di[1-methyl-2-[1-methyl-2-carboxamido(3-propionamidine)-4-pyrrole]-4-pyrrolyl] isophthalamide dihydrochloride]
[…] % of Control [2, 8]: 10.39 % of Control
[…] % of Control [2, 9]: 142.80 % of Control
[…] % of Control [2, 10]: 117.76 % of Control
[…] % of Control [2, 11]: 131.95 % of Control
[…] % of Control [2, 12]: -0.29 % of Control
[…] % of Control [2, 13]: 123.27 % of Control
[…] % of Control [2, 14]: 123.64 % of Control
[…] % of Control [2, 15]: 116.38 % of Control
Kapp [3]: 4.9e+07 M⁻¹
EC50 [1, 7]: 3.55 µM
INFECTED RESPONSE % of Control [1, 8]: 4.26 % of Control
INFECTED RESPONSE % of Control [1, 9]: 63.57 % of Control
INFECTED RESPONSE % of Control [1, 10]: 117.45 % of Control
INFECTED RESPONSE % of Control [1, 11]: 29.25 % of Control
INFECTED RESPONSE % of Control [1, 12]: 0.02 % of Control
INFECTED RESPONSE % of Control [1, 13]: 120.68 % of Control
INFECTED RESPONSE % of Control [1, 14]: 64.76 % of Control
INFECTED RESPONSE % of Control [1, 15]: 48.47 % of Control

Cl.Cl.Cn1cc(NC(=O)c2cc(NC(=O)CCCCC(=O)Nc3cc(C(=O)Nc4cc(C(=O)NCCC(=N)N)n(C)c4)n(C)c3)cn2C)cc1C(=O)NCCC(=N)N [Compound 7, N,N'-Di(1-methyl-2-[1-methyl-2-carboxamido(3-proprionamidine)-4-pyrrole]-4-pyrrolyl) adipamide dihydrochloride]
NEUTRAL RED DYE UPTAKE ([4]; 30 μg/ml): 102 ± 1 % OF CONTROL
NEUTRAL RED DYE UPTAKE ([4]; 300 μg/ml): 98 ± 2 % OF CONTROL
Solubility in H2O [5]: good
INT[…] DNA MONO. ([6]; 10 μM): 2.1 pg/μg CELL DNA and 2.3 pg/μg CELL DNA and 2.2 pg/μg CELL DNA and 2.6 pg/μg CELL DNA
HBV VIRION DNA DAY 0 ([6]; 10 μM, day 0): 75 pg/ml CULTURE MEDIUM and 92 pg/ml CULTURE MEDIUM and 60 pg/ml CULTURE MEDIUM and 55 pg/ml CULTURE MEDIUM
HBV VIRION DNA DAY 6 ([6]; 10 μM): 68 pg/ml CULTURE MEDIUM and 67 pg/ml CULTURE MEDIUM and 57 pg/ml CULTURE MEDIUM and 50 pg/ml CULTURE MEDIUM
HBV VIRION DNA DAY 9 ([6]; 10 μM): 56 pg/ml CULTURE MEDIUM and 57 pg/ml CULTURE MEDIUM and 87 pg/ml CULTURE MEDIUM and 58 pg/ml CULTURE MEDIUM
INT[…] DNA MONO. ([6]; 50 μM): 2.7 pg/μg CELL DNA and 2.5 pg/μg CELL DNA and 2.3 pg/μg CELL DNA
HBV VIRION DNA DAY 6 ([6]; 50 μM): 67 pg/ml CULTURE MEDIUM and 75 pg/ml CULTURE MEDIUM and 83 pg/ml CULTURE MEDIUM and 69 pg/ml CULTURE MEDIUM
HBV VIRION DNA DAY 9 ([6]; 50 μM, zero = undetectable, cutoff 0.1 pg/ml): 63 pg/ml CULTURE MEDIUM and 68 pg/ml CULTURE MEDIUM and 77 pg/ml CULTURE MEDIUM and 66 pg/ml CULTURE MEDIUM

Cl.Cl.Cn1cc(NC(=O)c2cc(NC(=O)c3ccc(C(=O)Nc4cc(C(=O)Nc5cc(C(=O)NCCC(=N)N)n(C)c5)n(C)c4)cc3)cn2C)cc1C(=O)NCCC(=N)N [Compound 19b, N,N'-di[1-methyl-2-[1-methyl-2-carboxamido(3-propionamidine)-4-pyrrole]-4-pyrrolyl] terephthalamide dihydrochloride]
[…] % of Control [2]: 192.17 % of Control
IC50 ([2]; Table XI): 17.9 µM
[…] % of Control [2, 16]: 136.50 % of Control
[…] % of Control [2, 17]: 92.72 % of Control
[…] % of Control [2, 18]: 92.56 % of Control
[…] % of Control [2, 19]: 164.46 % of Control
[…] % of Control [2, 20]: 88.21 % of Control
[…] % of Control [2, 21]: 94.69 % of Control
[…] % of Control [2, 22]: 68.62 % of Control
IC50 ([2]; uninfected CEM cells, 6 days, XTT, Tables VI-X): > 1.79 × 10^-5 Molar
Kapp [3]: 4.3e+07 M⁻¹
EC50 [1, 7]: 2.08 µM
EC50 ([1]; Table XI): 1.21 µM
INFECTED RESPONSE % of Control ([1]; dose 1.79 × 10^-5 Molar, Table VI): 167.25 % of Control
INFECTED RESPONSE % of Control [1, 16]: 51.73 % of Control
INFECTED RESPONSE % of Control [1, 17]: 29.97 % of Control
INFECTED RESPONSE % of Control [1, 18]: 33.00 % of Control
INFECTED RESPONSE % of Control [1, 19]: 134.54 % of Control
INFECTED RESPONSE % of Control [1, 20]: 28.86 % of Control
INFECTED RESPONSE % of Control [1, 21]: 23.70 % of Control
INFECTED RESPONSE % of Control [1, 22]: 39.64 % of Control

Cl.Cl.Cn1cc(NC(=O)c2cc(NC(=O)/C=C/C(=O)Nc3cc(C(=O)Nc4cc(C(=O)NCCC(=N)N)n(C)c4)n(C)c3)cn2C)cc1C(=O)NCCC(=N)N [Compound 21b, N,N'-di[1-methyl-2-[1-methyl-2-carboxamido(3-propionamidine)-4-pyrrole]-4-4pyrrolyl] fumaride dihydrochloride]
[…] % of Control [2, 23]: 83.05 % of Control
[…] % of Control [2, 24]: 90.26 % of Control
[…] % of Control [2, 25]: 151.83 % of Control
[…] % of Control [2, 26]: 88.21 % of Control
[…] % of Control [2, 27]: 67.56 % of Control
[…] % of Control [2, 28]: 83.87 % of Control
Kapp [3]: 4.9e+07 M⁻¹
EC50 [1, 7]: 1.67 µM
EC50 ([1]; Table XI): 1.37 µM
INFECTED RESPONSE % of Control [1, 23]: 18.00 % of Control
INFECTED RESPONSE % of Control [1, 24]: 26.15 % of Control
INFECTED RESPONSE % of Control [1, 25]: 96.78 % of Control
INFECTED RESPONSE % of Control [1, 26]: 20.00 % of Control
INFECTED RESPONSE % of Control [1, 27]: 22.96 % of Control
INFECTED RESPONSE % of Control [1, 28]: 38.90 % of Control
